Values joined by “and” are separate entries in the source; they are usually repeats but may differ in a detail not shown here. Identical values can stand only once.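 Tested at 5 concentrations; 48 h exposure; 96-well plates; endpoints linearly interpolated, else capped at highest concentration. The concentration for 50% growth inhibition is given as GI50. TGI is the concentration that stops growth completely.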

Among the test systems are U251 CNS; RPMI-8226 leukemia; NCI-H522 lung; A549 NSCLC; SK-MEL-2 melanoma; CAKI-1 renal; RXF 393 renal; MALME-3M melanoma; COLO 205 colon; SK-MEL-5 melanoma.
Assay in all cases: inhibition of tumour cell growth, NCI panel, 48 h

Take `CCCNNC(=O)/C=C/c1ccc(CNCCc2c(C)[nH]c3ccccc23)cc1`: the GI50 is 30.6 nM in the experiment on U251 CNS; 10.1 nM in the experiment on RPMI-8226 leukemia; 44.7 nM in the experiment with NCI-H522 lung; 68.9 nM in the experiment on A549 NSCLC; 34.2 nM in the experiment on SK-MEL-2 melanoma; 36.9 nM with CAKI-1 renal. For the same compound, the GI50 in the experiment on RXF 393 renal was 11 nM; with MALME-3M melanoma, 15 nM; in the experiment on COLO 205 colon, 11.1 nM; with SK-MEL-5 melanoma, 44.7 nM. In addition, the TGI in the experiment with U251 CNS worked out at 207 nM; with RPMI-8226 leukemia, 337 nM; in the experiment on NCI-H522 lung, 4190 nM; in the experiment on A549 NSCLC it was 2020 nM; with SK-MEL-2 melanoma it was 3680 nM; in the experiment on CAKI-1 renal it was 123 nM. The TGI is 47.9 nM with RXF 393 renal, 1220 nM with MALME-3M melanoma, 42.8 nM with COLO 205 colon and 122 nM in the experiment with SK-MEL-5 melanoma.
`FC(F)c1nc2ccccc2n1-c1nc(N2CCOCC2)nc(N2CCOCC2)n1`: the GI50 in the experiment with U251 CNS was 735 nM and 559 nM; in the experiment on RPMI-8226 leukemia, 482 nM and 345 nM; in the experiment on NCI-H522 lung, 222 nM and 295 nM; in the experiment on A549 NSCLC, 518 nM and 584 nM; in the experiment with SK-MEL-2 melanoma, 519 nM and 1080 nM; in the experiment on CAKI-1 renal, 197 nM and 268 nM. Further, the GI50 in the experiment with RXF 393 renal was 96.4 nM and 138 nM; in the experiment with MALME-3M melanoma it was 178 nM and 160 nM; with COLO 205 colon, 277 nM and 507 nM; in the experiment on SK-MEL-5 melanoma it was 453 nM and 338 nM. Besides, the TGI was > 100000 nM with U251 CNS; > 7200 nM and 4260 nM with RPMI-8226 leukemia; 2690 nM in the experiment on NCI-H522 lung; > 100000 nM with A549 NSCLC; 2790 nM and 14300 nM with SK-MEL-2 melanoma; 4250 nM and 2350 nM in the experiment with CAKI-1 renal. Further, the TGI in the experiment on RXF 393 renal is 625 nM and 674 nM; in the experiment on MALME-3M melanoma it was 1650 nM and 919 nM; in the experiment with SK-MEL-5 melanoma, 2110 nM and 2370 nM.
`CCOC(=O)c1sc(-c2ccc(OS(=O)(=O)c3ccc(Br)s3)c(C=O)c2)nc1C`: the GI50 with U251 CNS was 2680 nM; in the experiment on RPMI-8226 leukemia, 1940 nM; with NCI-H522 lung it was 2960 nM; with A549 NSCLC, 22700 nM; in the experiment with SK-MEL-2 melanoma it was 4830 nM; with CAKI-1 renal, 2860 nM. For the same compound, the GI50 in the experiment on RXF 393 renal is 2810 nM; with MALME-3M melanoma it was 4080 nM; in the experiment with COLO 205 colon, 16800 nM; with SK-MEL-5 melanoma, 1740 nM. The TGI in the experiment on U251 CNS was 10300 nM; with RPMI-8226 leukemia, 5180 nM; with NCI-H522 lung, 10500 nM; in the experiment on A549 NSCLC it was > 100000 nM; in the experiment on SK-MEL-2 melanoma, 27800 nM; with CAKI-1 renal, 14500 nM. Moreover, the TGI with RXF 393 renal is 13500 nM; in the experiment on MALME-3M melanoma, 18100 nM; with COLO 205 colon it was 33800 nM; in the experiment with SK-MEL-5 melanoma, 3180 nM.
On to `C=C1C(O)C2C(=C(CCc3ccccc3)C13CC3)C(=O)C(C)(CO)C2O` (stereo not drawn), for which the GI50 was > 100000 nM in the experiment with U251 CNS; 22200 nM in the experiment on RPMI-8226 leukemia; > 100000 nM in the experiment on NCI-H522 lung; > 100000 nM in the experiment on A549 NSCLC; > 100000 nM in the experiment with SK-MEL-2 melanoma; > 100000 nM in the experiment on CAKI-1 renal. Also, the GI50 with RXF 393 renal, in the experiment on MALME-3M melanoma, with COLO 205 colon and in the experiment on SK-MEL-5 melanoma was > 100000 nM throughout. Besides, the TGI in the experiment on U251 CNS was > 100000 nM; in the experiment with RPMI-8226 leukemia, 70200 nM; with NCI-H522 lung, > 100000 nM; in the experiment on A549 NSCLC, > 100000 nM; with SK-MEL-2 melanoma, > 100000 nM; in the experiment with CAKI-1 renal, > 100000 nM. Moreover, the TGI in the experiment on RXF 393 renal, in the experiment with MALME-3M melanoma, in the experiment with COLO 205 colon and in the experiment with SK-MEL-5 melanoma was > 100000 nM each time.
Regarding `O=C(CC(c1ccccc1)c1c(O)c2ccccc2oc1=O)c1ccccc1` (stereo not drawn), the TGI was > 100000 nM in the experiment on U251 CNS; > 100000 nM with RPMI-8226 leukemia; > 100000 nM in the experiment on NCI-H522 lung; > 100000 nM in the experiment on A549 NSCLC; > 100000 nM with SK-MEL-2 melanoma; 46400 nM with CAKI-1 renal. The TGI in the experiment with RXF 393 renal, in the experiment on MALME-3M melanoma, in the experiment with COLO 205 colon and in the experiment with SK-MEL-5 melanoma was > 100000 nM each time.
Regarding `Cc1cnc(NC(=O)Nc2cc(Br)c(C)cc2OC[C@@H]2CNCCO2)cn1`, the GI50 with U251 CNS was 2440 nM and 3070 nM; in the experiment on RPMI-8226 leukemia it was 3050 nM and 1520 nM; in the experiment on NCI-H522 lung, 2100 nM and 2460 nM; with A549 NSCLC, 1710 nM and 1930 nM; in the experiment on SK-MEL-2 melanoma it was 550 nM and 653 nM; with CAKI-1 renal, 1740 nM and 852 nM. Moreover, the GI50 is 564 nM and 219 nM in the experiment with RXF 393 renal; 1630 nM and 1940 nM with MALME-3M melanoma; 2580 nM and 2720 nM in the experiment with COLO 205 colon; 1430 nM and 1090 nM with SK-MEL-5 melanoma. Moreover, the TGI with U251 CNS was > 10000 nM and 13900 nM; in the experiment on RPMI-8226 leukemia, > 10000 nM and 8520 nM; in the experiment on NCI-H522 lung, > 10000 nM and 11500 nM; with A549 NSCLC, > 10000 nM and 15800 nM; with SK-MEL-2 melanoma, > 10000 nM and 13000 nM; in the experiment on CAKI-1 renal it was > 10000 nM and 6160 nM. Besides, the TGI in the experiment with MALME-3M melanoma is > 10000 nM and 6550 nM; in the experiment on COLO 205 colon, 9030 nM and 8550 nM; with SK-MEL-5 melanoma, 4220 nM and 2920 nM.
On to `C=C1C(=O)O[C@H]2[C@H]1CC/C(COC(=O)CSCCSCC(=O)OC/C1=C/CC[C@@]3(C)O[C@H]3[C@H]3OC(=O)C(=C)[C@@H]3CC1)=C\CC[C@@]1(C)O[C@@H]21`, for which the GI50 is 1660 nM in the experiment with U251 CNS; 1320 nM with RPMI-8226 leukemia; 1290 nM with NCI-H522 lung; 2720 nM in the experiment on A549 NSCLC; 2760 nM in the experiment on SK-MEL-2 melanoma; 1790 nM in the experiment on CAKI-1 renal. Further, the GI50 with RXF 393 renal is 1550 nM; with MALME-3M melanoma, 1480 nM; with COLO 205 colon, 1480 nM; in the experiment on SK-MEL-5 melanoma, 1880 nM. Besides, the TGI in the experiment with U251 CNS was 3510 nM; with RPMI-8226 leukemia, 4480 nM; in the experiment with NCI-H522 lung, 2800 nM; in the experiment on A549 NSCLC, 8210 nM; with SK-MEL-2 melanoma, 6640 nM; with CAKI-1 renal it was 3310 nM. The TGI with RXF 393 renal amounted to 3030 nM; in the experiment with MALME-3M melanoma, 3330 nM; in the experiment on COLO 205 colon, 2950 nM; in the experiment with SK-MEL-5 melanoma, 3720 nM.
On to `COC(=O)CCc1c[nH]c2ccc(N(CCCl)CCCl)cc12`, for which the GI50 was 1310 nM in the experiment with U251 CNS; 3050 nM in the experiment with RPMI-8226 leukemia; 1790 nM with NCI-H522 lung; 1510 nM in the experiment on A549 NSCLC; 9710 nM in the experiment on SK-MEL-2 melanoma; 375 nM in the experiment on CAKI-1 renal. Besides, the GI50 in the experiment on RXF 393 renal was 1640 nM; in the experiment on MALME-3M melanoma it was 5950 nM; with COLO 205 colon, 3500 nM; in the experiment on SK-MEL-5 melanoma, 2390 nM. Further, the TGI is 25100 nM in the experiment on U251 CNS; > 55900 nM in the experiment on RPMI-8226 leukemia; 6020 nM in the experiment on NCI-H522 lung; > 100000 nM with A549 NSCLC; 59000 nM in the experiment on SK-MEL-2 melanoma; > 28400 nM in the experiment on CAKI-1 renal. The TGI in the experiment with RXF 393 renal was determined as 4190 nM; in the experiment with MALME-3M melanoma, 30100 nM; with COLO 205 colon, 19400 nM; in the experiment on SK-MEL-5 melanoma, 14800 nM.

For the origin of these results see PubChem BioAssay (NCI).
